According to US20220105093A1, “PHARMACEUTICAL COMPOSITIONS AND COMBINATIONS COMPRISING INHIBITORS OF THE ANDROGEN RECEPTOR AND USES THEREOF” (ESSA Pharma, Inc., priority 2020, published 2022):

Columns and labels:
[1] = In vivo pharmacokinetics in plasma after oral gavage; conditions: mouse, male CD-1 mice
Procedure: The purpose of this study is to determine the pharmacokinetics of the tested compounds in plasma, following oral gavage administration (PO) to male CD-1 mice.
Animal Husbandry: Animals were group housed during acclimation and the study. The animal room environment were controlled (target conditions: temperature 18 to 26° C., relative humidity 30 to 70%, 12 hours artificial light and 12 hours dark). Temperature and relative humidity were monitored daily. Animals were fasted at least 12 hours prior to the administration. All animals had access to Certified Rodent Diet ad libitum 4 hours post dosing.
Dose Formulation: prepared 85-100 μL of a stock solution of representative compounds of the disclosure in DMSO at 50 mM; 1.5% v/v of Tween 80 were added and mixed gently; 95.5% v/v saline was added gently to the organic phase. The solution was mixed slowly by reverse pipetting to get a clear solution.
Dose Administration: the dose formulations were administered via oral gavage per facility SOPs. The dose volume were determined by the animals' body weight collected on the morning of dosing day
Sample Collection: blood collection (about 0.05 mL per time point) was performed from saphenous vein of each animal into polypropylene tubes at each timepoints (0, 0.25, 0.5, 1, 2, 4, 8, 12, and 24 hr). All blood samples were transferred into pre-chilled tubes containing 2 μL of K2-EDTA (0.5M) and placed on wet ice until centrifugation. Each collected blood sample was in the wet-ice before centrifugation. Each collected blood was under centrifugation for 15 minutes at 4° C. and 3000 g for plasma collection. Plasma samples were stored in polypropylene tubes, quickly frozen over dry ice and kept at −70±10° C. until LC/MS/MS analysis.
Bioanalytical analysis: A LC-MS/MS method for the quantitative determination of tested compound in biological matrix were developed under non-GLP compliance. A calibration curve with at least 7 non-zero calibration standards were applied for the method including LLOQ.
Plasma concentration versus time data were analyzed by non-compartmental approaches using the Phoenix WinNonlin 6.3 software program. Cl, Vdss, C0, Cmax, Tmax, T½, AUC(0-t), AUC(0-inf), MRT(0-t), MRT(0-inf), % F (oral availability) and graphs of plasma concentration versus time profile were reported.

[2] = tested on: androgen responsive genes in LNCaP cells; assay: mRNA expression of androgen responsive genes in LNCaP cells (NanoString AR/Prostate Cancer gene panel)
[3] = tested on: androgen responsive genes in VCaP cells; assay: mRNA expression of androgen responsive genes in VCaP cells (RNAseq); assay type: cell-based
Procedure: Relative mRNA expression in VCaP was measured to assess response of Compound A, enzalutamide (Enza), apalutamide (Apa), or darolutamide (Daro) alone or Compound A in combination with Enza, Apa, or Daro, in androgen responsive genes.

[4] = enzalutamide in plasma, single PO dose 15.0 mg/kg, single agent or with Compound A
[5] = Compound A in plasma, single PO dose 60.00 mg/kg, single agent or with enzalutamide

SMILES: CNC(=O)c1ccc(N2C(=S)N(c3ccc(C#N)c(C(F)(F)F)c3)C(=O)C2(C)C)cc1F [Enzalutamide, enzalutamide, reference compound]
- AUC(0-t) [1, 4]: 388 µg·h/mL
- Cmax [1, 4]: 21100 ng/mL
- Tmax [1, 4]: 9 h
- Log2Fold Change CDC6 ([2]; LNCaP, 7.5 μM): −1.20
- Log2Fold Change ERRFl1 ([2]; LNCaP, 7.5 μM): −4.51
- Log2Fold Change SNAl2 ([2]; LNCaP, 7.5 μM): −3.97

SMILES: CC(C)(c1ccc(OCc2ccnc(NS(C)(=O)=O)n2)cc1)c1cc(Cl)c(OCCCl)c(C#N)c1 [Compound A, N-(4-((4-(2-(3-chloro-4-(2-chloroethoxy)-5-cyanophenyl)propan-2-yl)phenoxy)methyl)pyrimidin-2-yl)methanesulfonamide]
- AUC(0-t) [1, 5]: 483 µg·h/mL
- Cmax [1, 5]: 41700 ng/mL
- Tmax [1, 5]: 4 h
- half-life ([1]; Compound A in plasma, single PO dose 60.00 mg/kg, single agent or with enzalutamide, read-out: T½ (converted)): 324 min
- inhibition of canonical AR dependent genes ([3]; Compound A at 10 μM in combination with the 'lutamides (FIGS. 11A, 11B)): superior inhibition of responsive genes
- synergy on androgen responsive gene expression ([3]; Compound A at 10 μM with Enza, Apa or Daro, R1881 stimulation (FIG. 10)): can synergize with Enza, Apa, and Daro
- Relative mRNA expression of androgen response genes FKBP5, TMPRSS2, KLK2, KLK3, and NKX3.1 ([2]; LNCaP cells (FIG. 6A)): dose-dependent response
- Log2Fold Change ERRFl1 ([2]; LNCaP, 7.5 μM): −2.76
- Log2Fold Change SNAl2 ([2]; LNCaP, 7.5 μM): −1.79
